Assay results reported in publication PMC8994274, “A proteolysis-targeting chimera molecule selectively degrades ENL and inhibits malignant gene expression and tumor growth” (Journal of Hematology & Oncology, 2022).
Where two headings read alike, the source gives them in different places.

How the values were obtained:
[1] = tested on: Molm-13 cells; assay: Antiproliferation assay (XTT), Molm-13; conditions: for EC50: Homo sapiens, MOLM-13, 168 h, read-out: Antiproliferative activity, EC50, Molm13
Method: (§2) Proliferation inhibition assays for suspension blood cancer cells were performed using an XTT assay kit (Biotium), following our previous methods [22]. EC50 values were determined using Prism 5 and from at least three independent experiments.

[2] = biological target: T1, ENL (Homo sapiens, UniProt Q03111); assay: ENL degradation in MV4;11 cells (Western blot); type: cell-based; parameters: endogenous in cells; host or cells: MV4;11; conditions: for Dmax: MV4-11, MV4;11 cells, read-out: Dmax (maximal degradation) of ENL; for Dmax / DC50: 24 h; for DC50: read-out: DC50 (concentration at which a protein is reduced by 50%) of ENL
T1 sequence (Q03111 1-559): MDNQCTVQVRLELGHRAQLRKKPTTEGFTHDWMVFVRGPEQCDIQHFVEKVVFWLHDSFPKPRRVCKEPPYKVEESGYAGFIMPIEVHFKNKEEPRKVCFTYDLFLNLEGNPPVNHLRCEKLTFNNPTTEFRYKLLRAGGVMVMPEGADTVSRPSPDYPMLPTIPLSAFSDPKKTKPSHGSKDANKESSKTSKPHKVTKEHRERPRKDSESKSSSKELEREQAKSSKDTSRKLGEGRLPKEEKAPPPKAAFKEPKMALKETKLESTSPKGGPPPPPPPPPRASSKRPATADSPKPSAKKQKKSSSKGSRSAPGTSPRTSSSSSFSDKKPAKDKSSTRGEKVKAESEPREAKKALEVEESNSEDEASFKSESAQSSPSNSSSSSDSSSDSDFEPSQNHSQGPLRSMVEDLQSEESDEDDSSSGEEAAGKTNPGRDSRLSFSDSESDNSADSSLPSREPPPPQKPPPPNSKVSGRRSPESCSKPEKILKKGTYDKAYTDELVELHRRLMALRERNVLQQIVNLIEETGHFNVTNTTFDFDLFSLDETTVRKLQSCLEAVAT
Method: We next tested whether these compounds degrade ENL and AF9 in MV4;11 leukemia cells with the MLL1-AF4 oncogene. Upon compound treatment for 24 h, the cells were washed, lysed, and the lysates subjected to SDS-PAGE (sodium dodecyl sulfate–polyacrylamide gel electrophoresis) followed by detection with Western blot.
3 × 10^6 cells/well were treated with increasing concentrations of a compound for 1 day, and whole proteins were extracted. Equal amounts of proteins were separated on SDS-PAGE and transferred to PVDF membranes. The blots were probed with primary antibodies, followed by anti-rabbit IgG (Thermo Scientific) secondary antibodies. The primary antibodies against ENL (Cell signaling #14893), AF9 (Novusbio #NB100-1565), DOT1L (Cell signaling #77087), AFF4 (Abcam #ab103586), Cyclin T1 (Cell signaling #81464), H3K79me2 (Cell signaling #5427), H3K79me1 (Cell signaling #9398), Histone H3 (Cell signaling #4499), FLAG (Sigma-Aldrich #F1804), β-Actin (Cell signaling #4970) were used in this study.

[3] = tested on: Hela cells; assay: Antiproliferation assay, Hela; conditions: Homo sapiens, read-out: Antiproliferative activity, EC50, Hela
[4] = tested on: MV4;11 cells; assay: Antiproliferation assay (XTT), MV4;11; conditions: Homo sapiens, MV4-11, 168 h, read-out: Antiproliferative activity, EC50, MV4;11
Method: as §2

[5] = biological target: T2, ENL YEATS (Homo sapiens, UniProt Q03111)
T2 sequence (Q03111 1-138): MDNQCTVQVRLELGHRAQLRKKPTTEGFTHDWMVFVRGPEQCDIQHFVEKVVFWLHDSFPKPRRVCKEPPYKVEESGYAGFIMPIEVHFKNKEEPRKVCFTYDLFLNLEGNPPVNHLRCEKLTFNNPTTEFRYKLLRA
Source text: cDNA for human ENL YEATS domain (1–138) was synthesized (by Genscript) and cloned into pET-28a vector.
(§3) AlphaScreen binding assay was developed using Perkin-Elmer AlphaScreen Histidine (Nickel Chelate) Detection Kit, following a reported protocol [39]. Data were imported into Prism (version 5.0), and IC50 values from 3 independent experiments with standard deviation were obtained by using a standard dose–response curve fitting.

[6] = biological target: T3, AF9 YEATS (Homo sapiens, UniProt P42568); assay: ALPHA assay, inhibition of the AF9 YEATS-H3K27ac interaction
T3 sequence (P42568 1-138 limits assumed): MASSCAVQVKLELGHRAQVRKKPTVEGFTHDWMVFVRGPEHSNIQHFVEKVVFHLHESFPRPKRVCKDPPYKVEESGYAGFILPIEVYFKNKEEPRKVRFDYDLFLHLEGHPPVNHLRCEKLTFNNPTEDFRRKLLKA
Source text: as §3

[7] = tested on: RPMI-8226 cells; assay: Antiproliferation assay (XTT), RPMI-8226; conditions: Homo sapiens, RPMI-8226, 168 h, read-out: Antiproliferative activity, EC50, RPMI-8226
Method: as §2

[8] = tested on: U266 cells; assay: Antiproliferation assay (XTT), U266; conditions: Homo sapiens, U-266, 168 h, read-out: Antiproliferative activity, EC50, U266
Method: as §2

[9] = tested on: Kasumi-1 cells; assay: Antiproliferation assay (XTT), Kasumi-1; conditions: Homo sapiens, Kasumi 1, 168 h, read-out: Antiproliferative activity, EC50, Kasumi-1
Method: as §2

[10] = tested on: Panc1 cells; assay: Antiproliferation assay, Panc1; conditions: Homo sapiens, PANC-1, 168 h, read-out: Antiproliferative activity, EC50, Panc1
[11] = tested on: blood and solid tumor cells; assay: Antiproliferation assay, ranges given over several cell lines; type: cell-based
Method: as §2

[12] = biological target: T1, ENL; assay: ENL in nucleus and cytoplasm of MV4;11 cells (Western blot); type: cell-based; parameters: endogenous in cells; host or cells: MV4;11; conditions: 4 days, compound 1 at 500 nM
Method: Upon treatment of MV4;11 cells with these compounds for 4 days, cytoplasmic and nuclear proteins were separated and subjected to SDS-PAGE/Western blot.
(§1) 3 × 10^6 cells/well were treated with increasing concentrations of a compound for 1 day, and whole proteins were extracted. Equal amounts of proteins were separated on SDS-PAGE and transferred to PVDF membranes. The blots were probed with primary antibodies, followed by anti-rabbit IgG (Thermo Scientific) secondary antibodies.

[13] = biological target: T1, ENL; assay: Rescue of compound 1-mediated ENL degradation in MV4;11 cells; type: cell-based; parameters: endogenous in cells; host or cells: MV4;11; conditions: 2 h pre-treatment, then co-treatment with 1 (500 nM) for 24 h
Method: as §1

EC50 [1] [µM]	Dmax [2] [%]	DC50 ([2]; MV4;11 cells) [µM]	EC50 ([3]; 168 h) [µM]	EC50 [4] [µM]	IC50 [5] [µM]	IC50 [6] [µM]	EC50 [7] [µM]	EC50 [8] [µM]	EC50 [10] [µM]	ENL reduction ([2]; MV4;11 cells, even at 5 μM)	EC50 ([3]; 72 h) [µM]	EC50 ([11]; non-selective activities, read-out: EC50 for blood and solid tumor cells (range over cell lines)) [µM]	Compound	EC50 [9] [µM]	Cytotoxic action over time ([11]; cancerous cells)	Antiproliferative activity, EC50, Molm13 ([1]; 7-day incubation)	ENL level in the nucleus [12]	Effect on compound 1-mediated ENL degradation [13]
0.98 ± 0.04	–	–	–	–	–	–	1.4 ± 0.46	–	–	did not reduce ENL	3.8 ± 1.2	1 to 3.8	C[C@H]1CCCN1Cc1nc2cc(NC(=O)c3ccc4c(cnn4CCCCNC(=O)CC45CC6CC(CC(C6)C4)C5)c3)ccc2[nH]1 [Compound 4]	–	killing cancerous cells non-selectively within 3 days	–	–	–
> 50	–	–	> 50	> 50	–	–	> 50	> 50	> 50	–	–	–	O=C1CCC(N2C(=O)c3ccccc3C2=O)C(=O)N1 (stereo not shown) [thalidomide, reference compound]	> 50	–	–	did not reduce	dose-dependently inhibit 1-mediated ENL degradation

The remaining lines, values behind:

Compound	EC50 [1] [µM]	Dmax [2] [%]	DC50 ([2]; MV4;11 cells) [µM]	EC50 ([3]; 168 h) [µM]	EC50 [4] [µM]	IC50 [5] [µM]	IC50 [6] [µM]	EC50 [7] [µM]	EC50 [8] [µM]	EC50 [10] [µM]	ENL reduction ([2]; MV4;11 cells, even at 5 μM)	EC50 ([3]; 72 h) [µM]	EC50 ([11]; non-selective activities, read-out: EC50 for blood and solid tumor cells (range over cell lines)) [µM]	EC50 [9] [µM]	Cytotoxic action over time ([11]; cancerous cells)	Antiproliferative activity, EC50, Molm13 ([1]; 7-day incubation)	ENL level in the nucleus [12]	Effect on compound 1-mediated ENL degradation [13]
C[C@H]1CCCN1Cc1nc2cc(NC(=O)c3ccc4c(cnn4CCCCCCNc4cccc5c4C(=O)N(C4CCC(=O)NC4=O)C5=O)c3)ccc2[nH]1 (stereo partly shown) [Compound 2]	0.49 ± 0.43	~68	~0.05	> 50	1.6 ± 0.01	0.1	0.317 ± 0.058	6 ± 0.9	17	> 50	–	–	–	19 ± 3.4	–	–	–	–
C[C@H]1CCCN1Cc1nc2cc(NC(=O)c3ccc4c(cnn4CCCCNc4cccc5c4C(=O)N(C4CCC(=O)NC4=O)C5=O)c3)ccc2[nH]1 (stereo partly shown) [Compound 3]	2.1 ± 0.03	89	0.072	> 50	1.2 ± 0.05	0.61	0.058 ± 0.02	19 ± 3.8	2.9 ± 1.8	> 50	–	–	–	50	–	–	–	–
C[C@H]1CCCN1Cc1nc2cc(NC(=O)c3ccc4c(cnn4C)c3)ccc2[nH]1 [SGC-iMLLT, reference compound]	17 ± 1.1	–	–	> 50	> 50	–	0.011 ± 0.0006	> 50	> 50	> 50	–	–	–	> 50	–	weak activity	no reduction or even an increase	dose-dependently inhibit 1-mediated ENL degradation
CC(C)C[C@H](NC(=O)[C@H](Cc1ccccc1)NC(=O)c1cnccn1)B(O)O [bortezomib]	–	–	–	–	–	–	–	–	–	–	–	–	–	–	–	–	–	dose-dependently inhibit 1-mediated ENL degradation
